Source: US20250263404A1, “AMINOPYRIDINES AS ACTIVATORS OF PI3 KINASE” (UCL Business Ltd, priority 2021, published 2025)

Columns and labels:
PIP3 levels in MEFs = experiment: PIP3 measurement by mass spectrometry in MEFs; format: cell-based, mouse
Protocol: FIG. 21. a, MEFs were stimulated for the indicated time points with 1938 (5 μM) or for 2 min with PDGF (20 ng/ml) or insulin (100 nM), followed by lipid extraction and PIP3 measurement by mass spectrometry. b, MEFs were stimulated for 2 min with increasing doses of 1938 or PDGF, followed by lipid extraction and PIP3 measurement by mass spectrometry. c, A549 cells were stimulated for 2 min with increasing doses of 1938 or insulin, or 10 ng/ml PDGF, followed by lipid extraction and PIP3 measurement by mass spectrometry.
Class I PI3Ks phosphorylate the PtdIns(4,5)P2 lipid in the plasma membrane to generate PtdIns(3,4,5)P3 (or PIP3), which can be converted to PtdIns(3,4)P2 by the action of 5-phosphatases. Treatment of MEFs (Mouse Embryonic Fibroblasts) with 1938 very rapidly (within 30 sec) led to increased PIP3 levels, as assessed by mass spectrometry, maxing at 5 min and maintained at this maximum level for up to 40 min (FIG. 21a). […] The observation of different levels of PIP3 induced by these growth factors is in line with the notion that PI3Kα is the sole mediator of PIP3 production downstream of insulin. This contrasts with PDGF, which activates both PI3Kα and PI3Kβ, with the latter PI3K isoform contributing substantially to acute PDGF-stimulated PIP3 generation in MEFs, correlating with the higher PIP3 levels induced by this agonist compared to insulin and 1938 (FIG. 21a). In the same experiment as in FIG. 21a, clear PI(3,4)P2 signal was detected in MEFs upon PDGF stimulation but not with 1938 (at 5 μM). This is consistent with a higher threshold for detection of PI(3,4)P2 compared to PIP3 by mass spectrometry (due primarily to background contamination, as discussed by Malek et al.), together with the relatively lower PI3K activation by 1938 compared to a high dose of PDGF, as is also illustrated by the experiments shown below.
These maximal 1938-induced PIP3 levels are below those required to give rise to sufficient PI(3,4)P2 to be detectable by mass spectrometry, a conclusion also supported by the observation that substantial levels of PIP3 induced by lower doses of PDGF (e.g. 0.5 ng/ml) were also not sufficient to give rise to levels of PI(3,4)P2 detectable by mass. […] A strong PIP3 response was also observed with insulin in these cells, with no PIP3 induced by PDGF, in line with the absence of this receptor in epithelial cells, including in A549.

G106V mutant of p110α = target: T1, G106V mutant of p110α (Homo sapiens, UniProt P42336, G106V); experiment: FRET membrane binding, oncogenic mutant G106V; format: biochemical
T1 construct: Full-length p110α was expressed in a complex with full-length p85α (for biochemistry and HDX-MS); 6xHis followed by TEV protease site (N); made in house; host or cells: Spodoptera frugiperda Sf9 (plasmid JB35)
T1 sequence (P42336 whole entry G106V): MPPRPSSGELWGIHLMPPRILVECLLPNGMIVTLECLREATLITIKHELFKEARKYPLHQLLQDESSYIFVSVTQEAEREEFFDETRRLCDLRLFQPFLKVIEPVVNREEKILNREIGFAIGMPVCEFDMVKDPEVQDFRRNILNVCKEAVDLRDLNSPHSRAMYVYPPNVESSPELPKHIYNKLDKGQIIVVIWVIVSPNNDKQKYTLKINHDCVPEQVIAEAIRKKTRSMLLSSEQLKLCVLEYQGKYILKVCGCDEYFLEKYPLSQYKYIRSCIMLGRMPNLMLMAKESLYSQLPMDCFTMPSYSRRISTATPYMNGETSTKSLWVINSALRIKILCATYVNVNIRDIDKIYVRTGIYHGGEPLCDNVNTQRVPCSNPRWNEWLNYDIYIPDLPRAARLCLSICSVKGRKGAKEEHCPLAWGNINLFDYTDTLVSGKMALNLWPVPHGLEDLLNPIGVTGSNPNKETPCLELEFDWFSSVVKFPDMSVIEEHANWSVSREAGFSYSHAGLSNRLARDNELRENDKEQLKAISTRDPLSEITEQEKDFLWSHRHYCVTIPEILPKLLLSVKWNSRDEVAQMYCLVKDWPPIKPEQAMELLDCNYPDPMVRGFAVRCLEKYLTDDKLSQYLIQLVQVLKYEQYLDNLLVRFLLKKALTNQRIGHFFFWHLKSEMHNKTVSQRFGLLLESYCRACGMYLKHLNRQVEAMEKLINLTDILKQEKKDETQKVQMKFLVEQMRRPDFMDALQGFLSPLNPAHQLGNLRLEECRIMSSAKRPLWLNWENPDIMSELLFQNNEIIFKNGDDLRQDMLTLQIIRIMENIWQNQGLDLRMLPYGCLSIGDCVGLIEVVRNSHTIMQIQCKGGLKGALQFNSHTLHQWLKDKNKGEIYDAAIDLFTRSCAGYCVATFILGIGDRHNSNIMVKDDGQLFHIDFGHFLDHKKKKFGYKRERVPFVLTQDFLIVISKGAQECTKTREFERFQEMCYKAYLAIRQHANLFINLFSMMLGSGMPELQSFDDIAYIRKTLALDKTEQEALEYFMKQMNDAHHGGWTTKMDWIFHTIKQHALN
T1 sequence (P27986 whole entry partner): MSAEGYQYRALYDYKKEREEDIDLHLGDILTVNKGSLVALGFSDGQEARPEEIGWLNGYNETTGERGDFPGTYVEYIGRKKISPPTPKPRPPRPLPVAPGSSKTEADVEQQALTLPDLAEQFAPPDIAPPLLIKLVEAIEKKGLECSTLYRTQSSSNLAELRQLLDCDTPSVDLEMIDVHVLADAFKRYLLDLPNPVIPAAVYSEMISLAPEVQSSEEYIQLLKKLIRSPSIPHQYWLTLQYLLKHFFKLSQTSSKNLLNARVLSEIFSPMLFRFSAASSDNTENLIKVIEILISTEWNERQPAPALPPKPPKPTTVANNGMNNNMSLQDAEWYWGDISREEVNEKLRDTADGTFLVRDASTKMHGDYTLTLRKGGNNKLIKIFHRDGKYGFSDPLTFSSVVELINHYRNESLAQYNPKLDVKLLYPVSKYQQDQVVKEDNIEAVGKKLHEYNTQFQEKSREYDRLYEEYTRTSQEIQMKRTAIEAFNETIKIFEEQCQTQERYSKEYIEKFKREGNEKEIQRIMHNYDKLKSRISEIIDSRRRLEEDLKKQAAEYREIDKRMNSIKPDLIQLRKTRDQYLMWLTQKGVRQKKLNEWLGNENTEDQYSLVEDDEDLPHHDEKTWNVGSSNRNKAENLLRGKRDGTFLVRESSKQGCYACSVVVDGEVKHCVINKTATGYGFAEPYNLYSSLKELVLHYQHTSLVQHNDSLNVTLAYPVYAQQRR
Protocol: Co-stimulation of 1938 with pY led to an additive activatory effect for G106V, but not for the N345K and E545K mutants (FIG. 1f/FIG. 22f).
Membrane binding assays were performed as previously published (Burke, J. E. et al. Proc Natl Acad Sci USA 109, 15259-15264 (2012)). Briefly, liposomes were prepared with 5% (w/v) brain PtdIns(4,5)P2, 20% brain phosphatidylserine, 35% brain phosphatidylethanolamine, 15% brain phosphatidylcholine, 10% cholesterol, 5% sphingomyelin, and 10% dansyl-phosphatidylserine (Avanti Polar Lipids). PI3Kα was used at a final concentration of 0.5 μM. Protein solutions were preincubated with 10 μM pY or compounds for 10 min before addition of liposomes. Liposomes were used at a final concentration of 50 μg/ml. The reaction mixture contained 5 μl enzyme, 2 μl compound and 3 μl liposomes, all diluted in 30 mM HEPES, 50 mM NaCl, pH 7.4. The reaction was allowed to proceed for 10 min at room temperature in 384 black-polystyrene plates (Corning #3544) on an orbital shaker at 200 rpm. FRET signals were measured using PHERAStar (BMG) with a 280 nm excitation filter with 350 nm and 520 nm emission filters to measure Dansyl-PS FRET emissions, respectively. FRET signal shown as I-I0, where I is the intensity at 520 nm, and 10 is the intensity at 520 nm for the solution in the absence of protein.

[1] = test system: pAKT^S473 in MEFs and A549; experiment: Time course of pAKT S473 induction in MEFs and A549; format: cell-based; conditions: 1938 (5 μM)
Source text: The inventors next monitored the activation of AKT, the best-known PI3K effector stimulated by PIP3/PI(3,4)P2 production in cells. […] As previously reported, PI3Kα-null MEFs still respond to insulin, but now in a PI3Kβ-dependent manner, as shown by sensitivity of insulin-stimulated pAKT^S473 to the PI3Kβ-selective inhibitor TGX-221 (FIG. 3b). […] Similar observations were made for mTORC1 pathway activation, as measured by S6 (Ser240/44) and 4EBP1 (Ser65) phosphorylation (FIG. 3e). […] Experiments with A549 cells and MEFs were performed separately using slightly different protocols. Briefly, A549 cells were seeded at 200,000 cells per well in 24-well plates in DMEM (10% FBS+1% P/S) and allowed to adhere overnight. The next day, cells were washed once with PBS before addition of serum-free DMEM for 24 h. On the day of treatment, cells were incubated in fresh serum-free DMEM prior to treatment. […]

## CCN1CCN(c2ccc(Nc3cc(Nc4cccc5c4N(C(C)=O)CC5)ccn3)cc2)CC1 [Example 1938]
PIP3 levels in MEFs; 2 min
  concentration at which PIP3 induction plateaus: around 10 μM
PIP3 levels in MEFs; 1938 5 μM
  duration of maximum PIP3 level: up to 40 min
  time of maximum PIP3 level: 5 min
  time to increased PIP3 levels: ≤ 30 s
PIP3 levels in MEFs; Mus musculus, 2 min, fixed 2 min time point, read-out: EC50 of PIP3 induction
  EC50: ~5 µM
G106V mutant of p110α
  membrane binding of G106V: did not increase
[1]
  time of onset of pAKT^S473 induction: 5 min
  time of peak pAKT^S473 activation: 30 min
